{
  "source": "patent US10370391B2",
  "about": "“Hydrogen peroxide-activable, anti-oxidant compounds and methods using same” (Beth Israel Deaconess Medical Center, Inc., priority 2014, dated 2019)",
  "key": {"[1]": {"system": "mouse embryonic fibroblast (NIH 3T3) cells", "experiment": "MTT cytotoxicity assay, NIH 3T3", "type": "cell-based", "details": "concentrations as high as 5 mM, 24 hours of incubation", "description": "FIG. 8, comprising FIGS. 8A-8B, is a set of bar graphs illustrating biocompatibility profiles of BRAP assessed by MTT assay in human embryonic kidney (HEK 293) cells (FIG. 8A) and mouse embryonic fibroblast (NIH 3T3) cells (FIG. 8B).\n3-(4,5-Dimethylthiazil-2yl)-2,5-diphenyltetrazolium bromide (MTT) assay was performed to evaluate the cytotoxicity of BRAP. NIH 3T3 cells were cultured at a density of 1×10^5 cells/well in a 24 well plate, and RAW 264.7 cells and HEK cells were also cultured at a density of 2×10^5 cells/well in a 24 well plate. Cells were incubated for 24 hours to reach ˜80% confluency. Cells were treated with various amount of BRAP and incubated for 24 hours. Each well was given 100 μL of MTT solution and was incubated for 4 h. 200 μL of dimethyl sulfoxide (DMSO) were added to each well to dissolve the resulting formazan crystals. After 10 min incubation, the absorbance at 570 nm was measured using a microplate reader (Biotek Instruments, Winooski, Vt.). The cell viability was determined by comparing the absorbance of BRAP treated cells that of control cells."}, "[2]": {"experiment": "Water solubility of isolated BRAP", "type": "physicochemical", "details": "white powder as obtained", "text": "H2O2-activable anti-oxidant prodrug BRAP was synthesized by reacting (4-(hydroxymethyl)phenyl)boronic acid and 2-(hydroxymethyl)-2-methylpropane-1,3-diol at room temperature (FIG. 1A). BRAP was obtained as white water-soluble powder and its chemical structure was confirmed by ^1H NMR (FIG. 1B)."}, "[3]": {"experiment": "H2O2 scavenging by peroxalate chemiluminescence (diphenyl oxalate, rubrene)", "description": "FIG. 21 is a bar graph illustrating H2O2-scavenging by BRAP-encapsulated PLGA microparticles. BRAP-encapsulated PLGA microparticles were incubated in H2O2 solution (10 μM) for 10 minutes, and the level of H2O2 was determined by peroxalate chemiluminesce using rubrene (1 mg) and diphenylperoxalate (10 mg).\nWithout wishing to be limited by any theory, BRAP could scavenge H2O2 during its H2O2-mediated boronate oxidation. This possibility was investigated using peroxalate chemiluminescence. Peroxalate chemiluminescence has been used as a versatile tool for the detection of a variety of chemical species including fluorescent molecules and H2O2 because of its excellent specificity and simplicity (Hadd, et al., 1999, J. Chem. Educ. 76:1237; Lee, et al., 2011, Bull. Korean Chem. Soc. 32:2187). […] A majority of H2O2 was scavenged by the same concentration of BRAP within 1 minutes.\nThe ability of the boronate compound to scavenge H2O2 was evaluated by measuring the chemiluminescence intensity after the reaction with diphenyl oxalate solution including rubrene. The boronate (1 μM, or 10 μM) was added in the H2O2 solution (10 μM). After 1 min reaction with H2O2, diphenyl oxalate solution was added to the H2O2 solution, and the chemiluminescence intensity was measured by using a luminometer (Femtomaster FB 12, Zylux Corporation, TN, US; FIG. 13).\nThe ability of BRAP to scavenge H2O2 was evaluated by measuring the chemiluminescence intensity after the reaction with diphenyl oxalate solution including rubrene. BRAP (1 μM, 5 μM, 10 μM, 20 μM) was added in the H2O2 solution (10 μM). After 1, 5 or 10 min reaction with H2O2, diphenyl oxalate solution was added to the H2O2 solution, and the chemiluminescence intensity was measured by using a luminometer (Femtomaster FB 12, Zylux Corporation, TN, US)."}, "[4]": {"experiment": "Activation of BRAP by H2O2, UV spectroscopy (absorbance at 273 nm)", "type": "physicochemical", "details": "after 90 minutes of treatment with H2O2", "description": "The activation of BRAP by H2O2 was also studied using UV spectroscopy. BRAP was mixed with H2O2 and the change in UV absorbance was monitored over time.\nBRAP was dissolved in PBS (pH 7.4) at a concentration of 1 mM and was incubated at 37° C. in the presence of 100 μM of H2O2. The concentration of HBA generated from BRAP was measured using a UV spectrometer at appropriate time points."}, "[5]": {"system": "renal ischemia/reperfusion (I/R) injury", "experiment": "Kidney I/R injury model in the mouse, oral BRAP", "type": "in vivo", "description": "BRAP administered orally was tested in a kidney I/R injury model in the mouse. In this model, one of the mouse's kidney was subjected to ischemia for about 30 min, using a combination of unilateral clamping and contralateral nephrectomy. BRAP was administered orally to the mice at two time points: the night before the surgery, and immediately before the I/R surgery. The read-out markers after I/R comprised: creatinine levels 24 hours after reperfusion; tumor necrosis factor alpha (TNF-α) and monocyte chemo-attractant protein-1 (MCP-1) (both inflammatory markers); DHE staining (monitoring for ROS generation); and TUNEL staining (monitoring for apoptosis)."}, "iNOS": {"system": "iNOS", "experiment": "iNOS level in LPS-stimulated macrophage cells", "type": "cell-based, mouse", "description": "FIG. 4, comprising FIGS. 4A-4F, is a set of graphs, bar graphs and images illustrating anti-oxidant and anti-inflammatory effects of BRAP in vitro. […] The generation of ROS was monitored by flow cytometry as an indicator of DCF fluorescence. Fluorescence was analyzed in 10,000 cells with excitation at 480 nm and emission at 530 nm. FIG. 4C: Protective effect of BRAP on H2O2— stimulated adult rat cardiomyocytes. V=vehicle, *<0.05 vs. V+H2O2 (n=4). […] (n=4/group).\nThe anti-inflammatory effects of BRAP on LPS-stimulated cells were investigated by measuring the level of inflammatory cytokines such as TNF-α (tumor necrosis factor-alpha) and iNOS (inducible nitric oxide synthases) (FIGS. 4E-4F). […] These observations indicate that BRAP, as well as BRAP-encapsulated PLGA microparticles, is able to scavenge overproduced H2O2 and serve as a H2O2-activable anti-oxidant. Further, the enhanced anti-oxidant activity of BRAP is derived from the combined effects of H2O2-scavenging boronic esters and HBA generation after H2O2-mediated boronate oxidation."}, "[6]": {"details": "oral administration, 24 hours after reperfusion"}},
  "data": [
    {"molecule": "CC1(CO)COB(c2ccc(CO)cc2)OC1", "note": "[BRAP, (4-(5-(hydroxymethyl)-5-methyl-1,3,2-dioxaborinan-2-yl)phenyl)methanol]", "values": [
      {"measurement": "cytotoxicity (MTT)", "setting": "[1]", "value": "no significant cytotoxicity"},
      {"measurement": "water solubility", "setting": "[2]", "value": "water-soluble"},
      {"measurement": "chemiluminescence intensity (H2O2 scavenging)", "setting": "[3]; H2O2 solution 10 μM, BRAP, concentration-dependent", "value": "significant reduction in chemiluminescence intensity"},
      {"measurement": "time in which a majority of H2O2 was scavenged", "setting": "[3]; same concentration of BRAP as H2O2", "value": "≤ 1", "unit": "min"},
      {"measurement": "change in UV absorbance (HBA generation)", "setting": "[4]", "value": "no further increase in UV absorbance"},
      {"measurement": "renal function (creatinine levels)", "setting": "[5]; daily oral administration 8 mg/kg, after 4 days", "value": "significant improvement"},
      {"measurement": "DHE staining (ROS generation) in kidney", "setting": "[5]; oral administration", "value": "significantly reduced"},
      {"measurement": "TUNEL staining (apoptosis) in kidney", "setting": "[5]; oral administration", "value": "significantly reduced"},
      {"measurement": "activation of MCP-1 in kidney", "setting": "[5]; [6]", "value": "significantly attenuated"},
      {"measurement": "activation of TNF-α in kidney", "setting": "[5]; [6]", "value": "significantly attenuated"},
      {"measurement": "iNOS level", "setting": "iNOS", "value": "significantly suppressing"}
    ]}
  ]
}
